# Experimental data: patent publication US20120034613A1, “Apparatus and Method for Testing Relationships Between Gene Expression and Physical Appearance of Skin” (NSE Products, Inc., priority 2010, published 2012)
# System: EpidermFT™ Skin Model (EFT-400) full thickness skin cultures
# Test: Affymetrix GeneChip HG U133 Plus 2.0 microarray global gene expression, agent-exposed vs untreated skin cultures
# Type: cell-based, human
# Details: Salicin 0.5% vs Untreated Control, 24 hr; direction down
smiles,measurement,value
"OCc1ccccc1O[C@@H]1O[C@H](CO)[C@@H](O)[C@H](O)[C@H]1O [Salicin, 2-(Hydroxymethyl)phenyl β-D-glucospyranoside]",Fold change IDH2 (210045_at),2.059
same,Fold change IL22RA1 (220056_at),2.023
same,Fold change INPP5D (203332_s_at),2.061
same,Fold change ITGA3 (201474_s_at),2.052
same,Fold change JAG1 (209099_x_at),2.044
same,Fold change JAG1 (216268_s_at),2.123
same,Fold change JMJD7 /// JMJD7-PLA2G4B /// PLA2G4B (222256_s_at),2.101
same,Fold change KCNK7 (224055_x_at),2.127
same,Fold change KCTD15 (222668_at),2.037
same,Fold change KIF1B (209234_at),2.105
same,Fold change KIF1B (225878_at),2.14
same,Fold change KLK1 (216699_s_at),2.169
same,Fold change KRT5 (201820_at),2.154
same,Fold change KRT6A (209125_at),2.034
same,Fold change KRT10 (207023_x_at),2.066
same,Fold change KRTCAP3 (235148_at),2.158
same,Fold change LMNA (212089_at),2.1
same,Fold change LMNA (1554600_s_at),2.053
same,Fold change LMNB1 (203276_at),2.146
same,Fold change LOC284837 (1563088_a_at),2.115
same,Fold change LOC286440 (209733_at),2.16
same,Fold change LOC400027 (226413_at),2.041
same,Fold change LOC401233 (1558882_at),2.002
same,Fold change LOC648245 (227739_at),2.064
same,Fold change LOC652968 (233528_s_at),2.038
same,Fold change LOC727820 (227384_s_at),2.055
same,Fold change LOC100128443 /// MAST4 (210958_s_at),2.131
same,Fold change LOC100128822 (235174_s_at),2.067
same,Fold change LOC100130837 (242255_at),2.078
same,Fold change LOC100131262 (1558152_at),2.081
same,Fold change LOC100131851 /// LOC100134497 /// LOC401002 /// LOC646674 /// SSBP3 (222482_at),2.025
same,Fold change LOC100133772 /// SLC16A5 (206600_s_at),2.044
same,Fold change LOC100134937 (229685_at),2.12
same,Fold change LPHN1 (47560_at),2.092
same,Fold change LY75 (205668_at),2.028
same,Fold change LYSMD4 (228954_at),2.116
same,Fold change MAFB (218559_s_at),2.112
same,Fold change MAPRE2 (202501_at),2.078
same,Fold change MEGF9 (212831_at),2.176
same,Fold change MFAP5 (213764_s_at),2.112
same,Fold change MIB2 (226644_at),2.032
same,Fold change MPP7 (238451_at),2.14
same,Fold change MTHFR (226929_at),2.073
same,Fold change MTMR1 (214975_s_at),2.146
same,Fold change MUC1 (213693_s_at),2.138
same,Fold change MYO18A /// TIAF1 (202039_at),2.04
same,Fold change NBEAL2 (212443_at),2.05
same,Fold change NCF2 (209949_at),2.128
same,Fold change NCRNA00086 (238697_at),2.098
same,Fold change PAIP1 (208051_s_at),2.141
same,Fold change PAIP2B (221868_at),2.043
same,Fold change PAWR (204005_s_at),2.161
same,Fold change PAWR (229515_at),2.15
same,Fold change PDIK1L (227255_at),2.059
same,Fold change PERP (217744_s_at),2.176
same,Fold change PIGW (1558292_s_at),2.085
same,Fold change PLEKHA2 (225136_at),2.159
same,Fold change PLS3 (201215_at),2.167
same,Fold change PNMA2 (209598_at),2.146
same,Fold change POLE2 (205909_at),2.104
same,Fold change POLH (231115_at),2.029
same,Fold change POLR3B (219459_at),2.135
same,Fold change POU3F1 (208345_s_at),2.16
same,Fold change PPAP2C (209529_at),2.033
same,Fold change PPP1CB (201409_s_at),2.054
same,Fold change PPP2CA (208652_at),2.035
same,Fold change PRDX2 (39729_at),2.068
same,Fold change PRKX (204061_at),2.015
same,Fold change PTCH1 (209815_at),2.148
same,Fold change PTGFR (1555097_a_at),2.022
same,Fold change PVRL1 (225211_at),2.08
same,Fold change RAB7B (1553982_a_at),2.095
same,Fold change RAPGEFL1 (218657_at),2.162
same,Fold change RHOV (241990_at),2.107
same,Fold change RICS (203431_s_at),2.143
same,Fold change RNF170 (226104_at),2.034
same,Fold change RORA (235567_at),2.083
same,Fold change RPS6KA5 (204633_s_at),2.051
same,Fold change RPS6KB2 (203777_s_at),2.074
same,Fold change SCRN3 (222849_s_at),2.115
same,Fold change SDCCAG8 (243963_at),2.133
same,Fold change SEMA4D (203528_at),2.021
same,Fold change SERPINB1 (213572_s_at),2.014
same,Fold change SETBP1 (227478_at),2.148
same,Fold change SHROOM2 (204967_at),2.088
same,Fold change SLC5A3 (212944_at),2.165
same,Fold change SLC24A3 (219090_at),2.138
same,Fold change SLC45A4 (225598_at),2.071
same,Fold change SLCO3A1 (219229_at),2.162
same,Fold change SMAP2 (225282_at),2.14
same,Fold change SMCR7 (235896_s_at),2.152
same,Fold change SNX21 (1553960_at),2.031
same,Fold change SNX24 (218705_s_at),2.152
same,Fold change SORD (201563_at),2.01
same,Fold change ST8SIA4 (230836_at),2.021
same,Fold change STK24 (208854_s_at),2.165
same,Fold change SYNGR2 (201079_at),2.14
same,Fold change TANC1 (225308_s_at),2.118
same,Fold change TCEA3 (226388_at),2.034
same,Fold change TCHP (223455_at),2.126
same,Fold change TGOLN2 (1554608_at),2.114
same,Fold change THBD (203888_at),2.109
same,Fold change TIMM22 (219184_x_at),2.067
same,Fold change TMC5 (222904_s_at),2.096
same,Fold change TMEM19 (226860_at),2.032
same,Fold change TMEM45A (219410_at),2.136
same,Fold change TMEM50B (225182_at),2.096
same,Fold change TMEM80 (65630_at),2.031
same,Fold change TP53I3 (210609_s_at),2.13
same,Fold change TRAF3IP2 (202987_at),2.079
same,Fold change TRIM2 (202342_s_at),2.062
same,Fold change TTC30B (1554588_a_at),2.011
same,Fold change VPS4B (218171_at),2.031
same,Fold change WNK1 (39313_at),2.008
